# Data taken from article PMC9504178 (Viruses, 2022).
# Tests used:
# c-Raf = settings: cited from earlier work; for higher selectivity for c-Raf than vemurafenib: no reference given
# [1] = system: A/Netherlands/602/09 (NL09); format: cell-based, influenza A virus
# NL09 and NL11 strains = format: cell-based, influenza A virus
# B-Raf = settings: no reference given; cited from earlier work
# [2] = system: A/Netherlands/241/11 (NL11); format: cell-based, influenza A virus
# NL09 or NL11 = format: cell-based, influenza A virus
# NL09 or NL11 strain = format: cell-based, influenza A virus
# NL09 and NL11 = format: cell-based, influenza A virus
# [3] = system: A(H1N1)pdm09 A/Netherlands/602/09 (NL09); format: cell-based, influenza A virus
# NL09 = format: cell-based, influenza A virus
# IAV = settings: single donor; cited from earlier work
# [4] = system: IAV laboratory strains (PR8 and WSN) and pandemic H1N1 (CA09); parameters: method as in earlier work; settings: A549 cells, AF 1μM, 15 hpi; cited from earlier work
# NL11 (H3N2) = format: cell-based, influenza A virus
# [5] = system: human precision-cut lung slices (hPCLSs); assay: LDH-Glo cytotoxicity assay in hPCLSs; settings: [10×]max: AF 50 μM, DA 100 μM, RG 25 μM; relative to Triton-X 100 positive control, 20% cut-off
SMILES,"relative infectivity, NL09 [1] [%]","effect on viral titers, NL11 compared with NL09 (NL09 and NL11 strains)",reduction in viral titers (NL09 and NL11 strains),"relative infectivity, NL11 [2] [%]",significance of viral titer reduction in infected hPCLSs (NL09 or NL11),time at which inhibition of virus replication in hPCLSs was observed (NL09 or NL11) [hpi],effect on viral entry (NP staining) (NL09 or NL11 strain),highest viral titer reduction at MOI = 0.1 (NL09 and NL11),reduction of the titers of both viruses (NL09 and NL11 strains),time dependence of effect on virus replication (NL09 and NL11),also measured
"CC(C)(C)c1nc(-c2cccc(NS(=O)(=O)c3c(F)cccc3F)c2F)c(-c2ccnc(N)n2)s1 [DA, dabrafenib]",117,significantly stronger in NL11-infected cells,10- to 100 fold,126,consistently significant after 48 hpi,≤ 12,inhibited,100 fold,–,–,higher selectivity for c-Raf than vemurafenib (c-Raf): 10 fold; higher selectivity for B-Raf than vemurafenib (B-Raf): 10- to 100 fold
"O=C(Nc1cnn2ccc(N3CCC[C@@H]3c3cc(F)ccc3F)nc12)N1CC[C@H](O)C1 [LA, larotrectinib]",60,–,–,91,–,≥ 72,no obvious effects on viral entry,100 fold,10- to 30 fold,greater effect on virus replication at the early time points (24 hpi),NL09 viral titer reduction [3]: ~ 9 fold; relative intracellular to extracellular (I/E) viral RNA Ct ratio (egress) (NL09): did not observe significant differences in any single step of viral replication
"CNC(=O)c1cc(Oc2ccc(NC(=O)Nc3ccc(Cl)c(C(F)(F)F)c3)c(F)c2)ccn1 [RG, regorafenib]",75,significantly stronger in NL11-infected cells,10- to 1000 fold,80,consistently significant after 48 hpi,≤ 12,inhibited,"10,000 fold",–,greater effect on virus replication at the early time points (24 hpi),selectivity for c-Raf relative to B-Raf (c-Raf): ~ 10 fold; higher selectivity for c-Raf than vemurafenib (c-Raf): 10 fold; potency in primary bronchial cells vs A549 cells (IAV): less potent in primary bronchial cells than in A549 cells; higher selectivity for B-Raf than vemurafenib (B-Raf): 10- to 100 fold; antiviral effect in hPCLSs compared to A549 cells (NL09 or NL11): more potent antiviral effect
"CN(C)C/C=C/C(=O)Nc1cc2c(Nc3ccc(F)c(Cl)c3)ncnc2cc1O[C@H]1CCOC1 [AF, afatinib]",–,significantly stronger in NL11-infected cells,100- to 3000 fold,65,consistently significant after 48 hpi,≤ 12,inhibited,1000 fold,–,greater effect on virus replication at the early time points (24 hpi),"relative cell viability over mock-infected treated controls (A549 cells): only marginally decreased the relative viability; effect on viral replication [4]: 2- to 5 fold; % Luminescence (relative to untreated / normalized to GFP), NL11 infection (NL11 (H3N2)): 50%; cytotoxicity (LDH release) in hPCLSs at [10×]max [5]: > 20%"
"Cn1cc(-c2cc3c(N4CCN(c5ncc([C@@](C)(N)c6ccc(F)cc6)cn5)CC4)ncnn3c2)cn1 [AV, avapritinib]",80,–,–,81,–,≤ 12,no obvious effects on viral entry,10 fold,10- to 30 fold,–,–
"Cc1cc(Nc2ncnc3ccc(NC4=NC(C)(C)CO4)cc23)ccc1Oc1ccn2ncnc2c1 [TU, tucatinib]",86,–,–,100,–,≤ 12,no obvious effects on viral entry,10 fold,10- to 30 fold,–,–
"CCOc1cc2ncc(C#N)c(Nc3ccc(OCc4ccccn4)c(Cl)c3)c2cc1NC(=O)/C=C/CN(C)C [NE, neratinib]",70,–,40- to 50 fold,92,–,≤ 12,inhibited,100 fold,10- to 30 fold,greater effect on virus replication at the early time points (24 hpi),antiviral effect in hPCLSs compared to A549 cells (NL09 or NL11): more potent antiviral effect
